Here are results for one molecule from patent US20130209446A1, “Copy Number Variant-Dependent Genes As Diagnostic Tools, Predictive Biomarkers And Therapeutic Targets” (Board of Trustees of the University of Arkansas, priority 2010, published 2013).

Common to all, as to test: MTT cell proliferation assay, PU-H71 titration
Holding throughout (format): cell-based

One test concerns OPM2. To be noted: Homo sapiens, OPM-2, OPM2 myeloma cell line, 72 hours, without thrombin. On the procedure:
(§1) Cell growth inhibition of an anticancer agent (PU-H71) (6) was tested in a panel of myeloma cell lines. HMCLs were treated with a titration of the anti-cancer reagent PU-H71 (0 to 4,000 nM) in vitro for 72 hours. The MTT assay was utilized to detect proliferation of each cell line. The half maximal inhibitory concentration (IC50) of PU-H71 was calculated using OriginPro 7.5 statistic software.

The next test deals with XG1. Particulars: Homo sapiens, XG1 myeloma cell line, 72 hours, without thrombin. On the procedure: as §1
The next test relates to INA6. Particulars: Homo sapiens, INA-6, INA6 myeloma cell line, 72 hours, without thrombin. On the procedure:
as §1

The subject of a further test is RPMI8226. To be noted: Homo sapiens, RPMI-8226, RPMI8226 myeloma cell line, 72 hours, without thrombin. On the procedure: as §1
The test system of another test is KMS28PE. Particulars: Homo sapiens, KMS-28PE, KMS28PE myeloma cell line, 72 hours, without thrombin. On the procedure:
as §1

Another test deals with KMS28BM. Particulars: Homo sapiens, KMS-28BM, KMS28BM myeloma cell line, 72 hours, without thrombin. On the procedure: as §1
The test system of the next test is JJN3. Particulars: Homo sapiens, JJN-3, JJN3 myeloma cell line, 72 hours, without thrombin. On the procedure: as §1
Another test relates to ARK. Particulars: Homo sapiens, ARK myeloma cell line, 72 hours, without thrombin. On the procedure:
as §1

In the next test the test system is MM144. To be noted: Homo sapiens, MM144 myeloma cell line, 72 hours, without thrombin. On the procedure: as §1
For another test, the system named is L363. To be noted: Homo sapiens, L-363, L363 myeloma cell line, 72 hours, without thrombin. On the procedure:
as §1

In another test the test system is U266. To be noted: Homo sapiens, U-266, U266 myeloma cell line, 72 hours, without thrombin. On the procedure:
as §1

The test system of a further test is OCI-MY5. To be noted: Homo sapiens, OCI-MY5 myeloma cell line, 72 hours, without thrombin. On the procedure:
as §1

Another test concerns H929. Particulars: Homo sapiens, NCI-H929, H929 myeloma cell line, 72 hours, without thrombin. On the procedure: as §1

For the molecule `CC(C)NCCCn1c(Sc2cc3c(cc2I)OCO3)nc2c(N)ncnc21` [PU-H71], the IC50 in the test on OPM2 came to 415 nM; with XG1, 238 nM; with INA6, 141 nM; in the test with RPMI8226, 485 nM; in the test with KMS28PE it was 344 nM; in the test on KMS28BM, 164 nM. The IC50 with JJN3 was 800 nM; in the test with ARK it was 339 nM; in the test on MM144 it was 306 nM; in the test with L363, 232 nM; in the test with U266, 198 nM; in the test with OCI-MY5, 164 nM. Moreover, half-maximal inhibition with H929 (IC50) required 210 nM.
